{
  "source": "patent US20030224416A1",
  "about": "“Schizophrenia related gene” (priority 2002, published 2003)",
  "tested_on": "Kv3.1 α-subunit mRNA",
  "test": "Experiment 1: in situ hybridization of Kv3.1 α-subunit mRNA in brain, chronic PCP rat model of schizophrenia with antipsychotic co-treatment",
  "format": "in vivo",
  "data": [
    {"compound": "CN1CCN(C2=Nc3ccc(F)cc3Nc3sc4ccccc4c32)CC1.O=C(O)/C=C\\C(=O)O", "note": "[Y-931, 8-fluoro-12-(4-methylpiperazin-1-yl)-6H-[l]benzothieno[2,3-b][1,5]benzo-diazepine monomaleate]", "values": [
      {"measurement": "Kv3.1 α-subunit mRNA expression", "setting": "M2, PCP + drug 1 mg/kg/day", "result": "13.10 ± 0.57", "unit": "PSL/mm^2"},
      {"measurement": "Kv3.1 α-subunit mRNA expression", "setting": "M2, PCP + drug 3 mg/kg/day", "result": "14.25 ± 0.81", "unit": "PSL/mm^2"},
      {"measurement": "Kv3.1 α-subunit mRNA expression", "setting": "M2, PCP + drug 10 mg/kg/day", "result": "13.04 ± 0.53", "unit": "PSL/mm^2"},
      {"measurement": "Kv3.1 α-subunit mRNA expression", "setting": "MG, PCP + drug 0.3 mg/kg/day", "result": "26.82 ± 1.55", "unit": "PSL/mm^2"},
      {"measurement": "Kv3.1 α-subunit mRNA expression", "setting": "MG, PCP + drug 1 mg/kg/day", "result": "26.36 ± 0.95", "unit": "PSL/mm^2"},
      {"measurement": "Kv3.1 α-subunit mRNA expression", "setting": "MG, PCP + drug 3 mg/kg/day", "result": "26.75 ± 2.02", "unit": "PSL/mm^2"},
      {"measurement": "Kv3.1 α-subunit mRNA expression", "setting": "MG, PCP + drug 10 mg/kg/day", "result": "27.36 ± 1.86", "unit": "PSL/mm^2"},
      {"measurement": "Kv3.1 α-subunit mRNA expression", "setting": "MM, PCP + drug 0.3 mg/kg/day", "result": "25.02 ± 2.54", "unit": "PSL/mm^2"},
      {"measurement": "Kv3.1 α-subunit mRNA expression", "setting": "MM, PCP + drug 1 mg/kg/day", "result": "24.82 ± 0.93", "unit": "PSL/mm^2"},
      {"measurement": "Kv3.1 α-subunit mRNA expression", "setting": "MM, PCP + drug 3 mg/kg/day", "result": "20.92 ± 0.93", "unit": "PSL/mm^2"},
      {"measurement": "Kv3.1 α-subunit mRNA expression", "setting": "MM, PCP + drug 10 mg/kg/day", "result": "28.12 ± 1.89", "unit": "PSL/mm^2"},
      {"measurement": "Kv3.1 α-subunit mRNA expression", "setting": "Pir, PCP + drug 0.3 mg/kg/day", "result": "38.95 ± 2.38", "unit": "PSL/mm^2"},
      {"measurement": "Kv3.1 α-subunit mRNA expression", "setting": "Pir, PCP + drug 1 mg/kg/day", "result": "43.16 ± 2.76", "unit": "PSL/mm^2"},
      {"measurement": "Kv3.1 α-subunit mRNA expression", "setting": "Pir, PCP + drug 3 mg/kg/day", "result": "38.15 ± 3.31", "unit": "PSL/mm^2"},
      {"measurement": "Kv3.1 α-subunit mRNA expression", "setting": "Pir, PCP + drug 10 mg/kg/day", "result": "41.69 ± 1.90", "unit": "PSL/mm^2"},
      {"measurement": "Kv3.1 α-subunit mRNA expression", "setting": "PrL, PCP + drug 0.3 mg/kg/day", "result": 12.76, "unit": "PSL/mm^2"},
      {"measurement": "Kv3.1 α-subunit mRNA expression", "setting": "PrL, PCP + drug 1 mg/kg/day", "result": 12.17, "unit": "PSL/mm^2"},
      {"measurement": "Kv3.1 α-subunit mRNA expression", "setting": "PrL, PCP + drug 3 mg/kg/day", "result": 12.93, "unit": "PSL/mm^2"},
      {"measurement": "Kv3.1 α-subunit mRNA expression", "setting": "PrL, PCP + drug 10 mg/kg/day", "result": 12.55, "unit": "PSL/mm^2"},
      {"measurement": "effect on PCP-induced decrease in Kv3.1 α-subunit mRNA expression", "setting": "PrL, all doses administered (0.3-10 mg/kg/day)", "result": "significantly reversed the PCP-induced decrease back to control levels"},
      {"measurement": "Kv3.1 α-subunit mRNA expression", "setting": "RSa, PCP + drug 0.3 mg/kg/day", "result": "19.22 ± 1.40", "unit": "PSL/mm^2"},
      {"measurement": "Kv3.1 α-subunit mRNA expression", "setting": "RSa, PCP + drug 1 mg/kg/day", "result": "18.90 ± 1.03", "unit": "PSL/mm^2"},
      {"measurement": "Kv3.1 α-subunit mRNA expression", "setting": "RSa, PCP + drug 3 mg/kg/day", "result": "17.36 ± 1.55", "unit": "PSL/mm^2"},
      {"measurement": "Kv3.1 α-subunit mRNA expression", "setting": "RSa, PCP + drug 10 mg/kg/day", "result": "18.04 ± 0.87", "unit": "PSL/mm^2"},
      {"measurement": "Kv3.1 α-subunit mRNA expression", "setting": "RSg, PCP + drug 0.3 mg/kg/day", "result": "20.89 ± 0.95", "unit": "PSL/mm^2"},
      {"measurement": "Kv3.1 α-subunit mRNA expression", "setting": "RSg, PCP + drug 1 mg/kg/day", "result": "19.99 ± 0.59", "unit": "PSL/mm^2"},
      {"measurement": "Kv3.1 α-subunit mRNA expression", "setting": "RSg, PCP + drug 3 mg/kg/day", "result": "20.73 ± 1.22", "unit": "PSL/mm^2"},
      {"measurement": "Kv3.1 α-subunit mRNA expression", "setting": "RSg, PCP + drug 10 mg/kg/day", "result": "19.48 ± 0.64", "unit": "PSL/mm^2"},
      {"measurement": "Kv3.1 α-subunit mRNA expression", "setting": "SN, PCP + drug 0.3 mg/kg/day", "result": "11.66 ± 0.91", "unit": "PSL/mm^2"},
      {"measurement": "Kv3.1 α-subunit mRNA expression", "setting": "SN, PCP + drug 1 mg/kg/day", "result": "12.98 ± 1.12", "unit": "PSL/mm^2"},
      {"measurement": "Kv3.1 α-subunit mRNA expression", "setting": "SN, PCP + drug 3 mg/kg/day", "result": "13.04 ± 1.29", "unit": "PSL/mm^2"},
      {"measurement": "Kv3.1 α-subunit mRNA expression", "setting": "SN, PCP + drug 10 mg/kg/day", "result": "15.34 ± 1.58", "unit": "PSL/mm^2"},
      {"measurement": "Kv3.1 α-subunit mRNA expression", "setting": "VMStr, PCP + drug 0.3 mg/kg/day", "result": "6.75 ± 0.50", "unit": "PSL/mm^2"},
      {"measurement": "Kv3.1 α-subunit mRNA expression", "setting": "VMStr, PCP + drug 1 mg/kg/day", "result": "7.18 ± 0.71", "unit": "PSL/mm^2"},
      {"measurement": "Kv3.1 α-subunit mRNA expression", "setting": "VMStr, PCP + drug 3 mg/kg/day", "result": "7.69 ± 0.35", "unit": "PSL/mm^2"},
      {"measurement": "Kv3.1 α-subunit mRNA expression", "setting": "VMStr, PCP + drug 10 mg/kg/day", "result": "7.23 ± 0.26", "unit": "PSL/mm^2"},
      {"measurement": "Kv3.1 α-subunit mRNA expression", "setting": "VO, PCP + drug 0.3 mg/kg/day", "result": "19.12 ± 0.74", "unit": "PSL/mm^2"},
      {"measurement": "Kv3.1 α-subunit mRNA expression", "setting": "VO, PCP + drug 1 mg/kg/day", "result": "17.81 ± 1.08", "unit": "PSL/mm^2"},
      {"measurement": "Kv3.1 α-subunit mRNA expression", "setting": "VO, PCP + drug 3 mg/kg/day", "result": "19.32 ± 0.63", "unit": "PSL/mm^2"},
      {"measurement": "Kv3.1 α-subunit mRNA expression", "setting": "VO, PCP + drug 10 mg/kg/day", "result": "18.51 ± 1.08", "unit": "PSL/mm^2"},
      {"measurement": "effect on PCP-induced decreases in Kv3.1 α-subunit mRNA expression (summary)", "setting": "chronic co-administration with PCP", "result": "reversed"},
      {"measurement": "effect on PCP-induced decrease in Kv3.1 α-subunit mRNA expression", "setting": "dRt and DLStr", "result": "neither Y-931 nor olanzapine significantly modulated the PCP-induced effect"},
      {"measurement": "Kv3.1 α-subunit mRNA expression", "setting": "dRt, PCP + drug 0.3 mg/kg/day", "result": "54.94 ± 1.99", "unit": "PSL/mm^2"},
      {"measurement": "Kv3.1 α-subunit mRNA expression", "setting": "dRt, PCP + drug 1 mg/kg/day", "result": "51.68 ± 2.34", "unit": "PSL/mm^2"},
      {"measurement": "Kv3.1 α-subunit mRNA expression", "setting": "dRt, PCP + drug 3 mg/kg/day", "result": "53.38 ± 2.99", "unit": "PSL/mm^2"},
      {"measurement": "Kv3.1 α-subunit mRNA expression", "setting": "dRt, PCP + drug 10 mg/kg/day", "result": "54.81 ± 1.90", "unit": "PSL/mm^2"},
      {"measurement": "Kv3.1 α-subunit mRNA expression", "setting": "vRt, PCP + drug 0.3 mg/kg/day", "result": "46.91 ± 2.73", "unit": "PSL/mm^2"},
      {"measurement": "Kv3.1 α-subunit mRNA expression", "setting": "vRt, PCP + drug 1 mg/kg/day", "result": "47.18 ± 2.10", "unit": "PSL/mm^2"},
      {"measurement": "Kv3.1 α-subunit mRNA expression", "setting": "vRt, PCP + drug 3 mg/kg/day", "result": "52.57 ± 2.00", "unit": "PSL/mm^2"},
      {"measurement": "Kv3.1 α-subunit mRNA expression", "setting": "vRt, PCP + drug 10 mg/kg/day", "result": "49.70 ± 2.76", "unit": "PSL/mm^2"}
    ]}
  ]
}
